# Data reported in ChEMBL document CHEMBL1124302, “Nucleoside conjugates. 10. Synthesis and antitumor activity of 1-beta-D-arabinofuranosylcytosine 5'-diphosphate-1,2-dipalmitins” (J Med Chem, 1988).
# “And” between values parts separate entries of the source, which are not always exact repeats. Equal values may be shown once.
# Assays:
# Format in all cases: functional
# Mus musculus [1] = species on record: Mus musculus; assay: Percentage increase in life span after 10 days
# Mus musculus [2] = species on record: Mus musculus; assay: Percentage increase in life span after 11-12 days
# Mus musculus [3] = assay: No of survivors after 45 days ata dose of 19 and 38 mg/kg/day
# Mus musculus [4] = assay: No of survivors after 45 days ata dose of 95 and 190 mg/kg/day
# Mus musculus [5] = assay: Weight change on day 8 in L1210/ara-C (I) Lymphoid Leukemia in mice( ip implanted) at a dose of 95 and 190 mg/kg/day; conditions: route intraperitoneal
# Mus musculus [6] = assay: weight change on day 8 in L1210/ara-C (I) Lymphoid Leukemia in mice( ip implanted) at a dose of 19 and 38 mg/kg/day; conditions: route intraperitoneal
# Mus musculus [7] = species on record: Mus musculus; assay: Percentage increase in life span after 9-12 days
# Mus musculus [8] = species on record: Mus musculus; assay: Percentage increase in life span after 12-13days
# Mus musculus [9] = species on record: Mus musculus; assay: Percentage increase in life span after 13-15 days
# Mus musculus [10] = species on record: Mus musculus; assay: Dose producing greatest increase in life span expressed as optimum dose (L1210/ara-C I) (qd 1,5,9)
# Mus musculus [11] = assay: No of survivors after 45 days ata dose of 60 mg/kg/day
# Mus musculus [12] = assay: No of survivors after 45 days at a dose of 400 mg/kg/day
# Mus musculus [13] = assay: weight change on day 8 in L1210/ara-C (I) Lymphoid Leukemia in mice( ip implanted) at a dose of 60 mg/kg/day (qd=1-5); conditions: route intraperitoneal
# Mus musculus [14] = assay: weight change on day 8 in L1210/ara-C (I) Lymphoid Leukemia in mice( ip implanted) at a dose of 100 mg/kg/day (qd=1,5,9); conditions: route intraperitoneal
# Mus musculus [15] = assay: No of survivors after 45 days ata dose of 100 mg/kg/day
# Mus musculus [16] = assay: Weight change on day 8 in L1210/ara-C (I) Lymphoid Leukemia in mice( ip implanted) at a dose of 400 mg/kg/day (qd=1); conditions: route intraperitoneal
# Mus musculus [17] = species on record: Mus musculus; assay: Percentage increase in life span after 15-18 days
# Mus musculus [18] = species on record: Mus musculus; assay: Percentage increase in life span after 17-21 days
# Mus musculus [19] = species on record: Mus musculus; assay: Percentage increase in life span after 7-8 days
# Mus musculus [20] = species on record: Mus musculus; assay: Percentage increase in life span after 7 days
# Mus musculus [21] = species on record: Mus musculus; assay: Dose producing greatest increase in life span expressed as optimum dose (L1210/ara-C I) (qd 1)
# Mus musculus [22] = species on record: Mus musculus; assay: Dose producing greatest increase in life span expressed as optimum dose (L1210/ara-C I) (qd 1-15)
# Mus musculus [23] = species on record: Mus musculus; assay: Dose producing greatest increase in life span expressed as optimum dose (L1210/ara-C I) (qd 1-5)
# Mus musculus [24] = assay: (§1) No of survivors after 45 days at a dose of 100 mg/kg/day
# Mus musculus [25] = assay: as §1; remark: listed apart in the source
# Mus musculus [26] = assay: (§2) No of survivors after 45 days at a dose of 200 mg/kg/day
# Mus musculus [27] = assay: as §2; remark: listed apart in the source
# Mus musculus [28] = assay: No of survivors after 45 days at a dose of 300 mg/kg/day
# Mus musculus [29] = assay: (§3) No of survivors after 45 days at a dose of 60 mg/kg/day
# Mus musculus [30] = assay: as §3; remark: listed apart in the source
# Mus musculus [31] = species on record: Mus musculus; assay: Dose producing greatest increase in life span expressed as optimum dose (L1210/ara-C I) (qd 1-9)
# Mus musculus [32] = species on record: Mus musculus; assay: Dose producing greatest increase in life span expressed as optimum dose (L1210/ara-C II) (qd 1-5)
# Mus musculus [33] = assay: Weight change on day 8 in L1210/ara-C (I) Lymphoid Leukemia in mice( ip implanted) at a dose of 100 mg/kg/day (qd=1,5,9); conditions: route intraperitoneal
# Mus musculus [34] = assay: Weight change on day 8 in L1210/ara-C (I) Lymphoid Leukemia in mice( ip implanted) at a dose of 200 mg/kg/day (qd=1); conditions: route intraperitoneal
# Mus musculus [35] = assay: Weight change on day 8 in L1210/ara-C (I) Lymphoid Leukemia in mice( ip implanted) at a dose of 60 mg/kg/day (qd=1-15); conditions: route intraperitoneal
# Mus musculus [36] = assay: Weight change on day 8 in L1210/ara-C (I) Lymphoid Leukemia in mice( ip implanted) at a dose of 60 mg/kg/day (qd=1-5); conditions: route intraperitoneal
# Mus musculus [37] = assay: Weight change on day 8 in L1210/ara-C (I) Lymphoid Leukemia in mice( ip implanted) at a dose of 60 mg/kg/day (qd=1-9); conditions: route intraperitoneal
smiles,measurement,setting,value
CCCCCCCCCCCCCCCC(=O)OC[C@@H](COP(=O)(O)O)OC(=O)CCCCCCCCCCCCCCC.Nc1ccn([C@@H]2O[C@H](COP(=O)(O)O)[C@@H](O)[C@@H]2O)c(=O)n1,ILS,Mus musculus [1],5%
same,ILS,Mus musculus [2],16%
same,No. of survivors,Mus musculus [3],0
same,No. of survivors,Mus musculus [4],0
same,Weight change,Mus musculus [5],-0.82 g mouse-1
same,Weight change,Mus musculus [6],-1.58 g mouse-1
CCCCCCCCCCCCCCCC(=O)OCC(COP(=O)(O)OP(=O)(O)OC[C@H]1O[C@@H](n2ccc(N)nc2=O)[C@@H](O)[C@@H]1O)OC(=O)CCCCCCCCCCCCCCC (mixture of isomers),ILS,Mus musculus [7],>400%
same,ILS,Mus musculus [8],317%
same,ILS,Mus musculus [9],233%
same,Optimal dose,Mus musculus [10],100 mg·µM/kg
same,No. of survivors,Mus musculus [11],2
same,No. of survivors,Mus musculus [12],4
same,Weight change,Mus musculus [13],-2.92 g mouse-1
same,Weight change,Mus musculus [14],-1.35 g mouse-1
same,No. of survivors,Mus musculus [15],2
same,Weight change,Mus musculus [16],-2.07 g mouse-1
Nc1ccn([C@@H]2O[C@H](CO)[C@@H](O)[C@@H]2O)c(=O)n1 [CYTARABINE],ILS,Mus musculus [7],17%
same,ILS,Mus musculus [8],50%
same,ILS,Mus musculus [9],65%
same,ILS,Mus musculus [17],82%
same,ILS,Mus musculus [18],147%
same,ILS,Mus musculus [19],-22% and -11%
same,ILS,Mus musculus [20],-22%
same,Optimal dose,Mus musculus [21],200 µM/kg
same,Optimal dose,Mus musculus [10],100 µM/kg
same,Optimal dose,Mus musculus [22],60 µM/kg
same,Optimal dose,Mus musculus [23],60 µM/kg
same,No. of survivors,Mus musculus [24],0
same,No. of survivors,Mus musculus [25],0
same,No. of survivors,Mus musculus [26],0
same,No. of survivors,Mus musculus [27],0
same,No. of survivors,Mus musculus [28],0
same,No. of survivors,Mus musculus [29],0
same,No. of survivors,Mus musculus [30],0
same,Optimal dose,Mus musculus [31],60 µM/kg
same,Optimal dose,Mus musculus [32],100 µM/kg and 200 µM/kg and 300 µM/kg
same,Weight change,Mus musculus [33],2.6 g mouse-1
same,Weight change,Mus musculus [34],3.6 g mouse-1
same,Weight change,Mus musculus [35],-0.93 g mouse-1
same,Weight change,Mus musculus [36],-0.87 g mouse-1
same,Weight change,Mus musculus [37],-1.8 g mouse-1
